Results reported in PMC3914206.

Tests used:
Type in all cases: binding
[1] = molecular target: T1, panel of 442 kinases (Homo sapiens, UniProt P42685); settings: Compound Concentration 10 µM
T1 construct: purchased KINOMEscan
Excerpt: (§1) We assessed the selectivity of members of this scaffold using the KINOMEscan methodology across a near comprehensive panel of 442 kinases [[18,27]].

[2] = molecular target: T2, panel of 442 kinases (Homo sapiens, UniProt Q15375); settings: Compound Concentration 10 µM
T2 construct: purchased KINOMEscan
T2 sequence (Q15375 28-998): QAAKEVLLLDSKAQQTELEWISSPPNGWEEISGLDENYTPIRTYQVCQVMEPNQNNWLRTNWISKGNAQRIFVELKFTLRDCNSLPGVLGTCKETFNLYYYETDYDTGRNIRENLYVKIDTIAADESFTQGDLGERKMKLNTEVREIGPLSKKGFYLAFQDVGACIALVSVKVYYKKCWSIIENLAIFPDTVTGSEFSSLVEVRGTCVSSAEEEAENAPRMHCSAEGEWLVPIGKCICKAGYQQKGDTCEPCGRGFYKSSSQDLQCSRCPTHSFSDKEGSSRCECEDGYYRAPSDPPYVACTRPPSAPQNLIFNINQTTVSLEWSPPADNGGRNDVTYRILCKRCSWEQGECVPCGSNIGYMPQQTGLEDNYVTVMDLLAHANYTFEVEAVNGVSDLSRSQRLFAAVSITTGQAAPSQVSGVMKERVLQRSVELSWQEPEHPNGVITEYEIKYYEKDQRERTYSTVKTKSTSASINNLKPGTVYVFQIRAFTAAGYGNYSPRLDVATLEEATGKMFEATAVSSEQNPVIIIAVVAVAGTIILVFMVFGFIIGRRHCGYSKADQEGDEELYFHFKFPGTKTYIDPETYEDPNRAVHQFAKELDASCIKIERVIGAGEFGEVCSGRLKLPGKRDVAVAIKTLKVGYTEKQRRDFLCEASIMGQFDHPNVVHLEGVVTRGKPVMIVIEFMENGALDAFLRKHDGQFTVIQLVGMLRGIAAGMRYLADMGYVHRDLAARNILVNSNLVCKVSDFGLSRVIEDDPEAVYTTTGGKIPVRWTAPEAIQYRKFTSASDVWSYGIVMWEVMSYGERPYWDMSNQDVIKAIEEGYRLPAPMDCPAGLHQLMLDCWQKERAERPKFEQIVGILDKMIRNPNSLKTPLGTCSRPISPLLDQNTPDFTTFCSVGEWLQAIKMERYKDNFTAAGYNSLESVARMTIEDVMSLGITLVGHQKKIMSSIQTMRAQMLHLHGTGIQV
Excerpt: as §1

[3] = molecular target: T3, panel of 442 kinases (Homo sapiens, UniProt P09619); settings: Compound Concentration 10 µM
T3 construct: purchased KINOMEscan
T3 sequence (P09619 33-1106): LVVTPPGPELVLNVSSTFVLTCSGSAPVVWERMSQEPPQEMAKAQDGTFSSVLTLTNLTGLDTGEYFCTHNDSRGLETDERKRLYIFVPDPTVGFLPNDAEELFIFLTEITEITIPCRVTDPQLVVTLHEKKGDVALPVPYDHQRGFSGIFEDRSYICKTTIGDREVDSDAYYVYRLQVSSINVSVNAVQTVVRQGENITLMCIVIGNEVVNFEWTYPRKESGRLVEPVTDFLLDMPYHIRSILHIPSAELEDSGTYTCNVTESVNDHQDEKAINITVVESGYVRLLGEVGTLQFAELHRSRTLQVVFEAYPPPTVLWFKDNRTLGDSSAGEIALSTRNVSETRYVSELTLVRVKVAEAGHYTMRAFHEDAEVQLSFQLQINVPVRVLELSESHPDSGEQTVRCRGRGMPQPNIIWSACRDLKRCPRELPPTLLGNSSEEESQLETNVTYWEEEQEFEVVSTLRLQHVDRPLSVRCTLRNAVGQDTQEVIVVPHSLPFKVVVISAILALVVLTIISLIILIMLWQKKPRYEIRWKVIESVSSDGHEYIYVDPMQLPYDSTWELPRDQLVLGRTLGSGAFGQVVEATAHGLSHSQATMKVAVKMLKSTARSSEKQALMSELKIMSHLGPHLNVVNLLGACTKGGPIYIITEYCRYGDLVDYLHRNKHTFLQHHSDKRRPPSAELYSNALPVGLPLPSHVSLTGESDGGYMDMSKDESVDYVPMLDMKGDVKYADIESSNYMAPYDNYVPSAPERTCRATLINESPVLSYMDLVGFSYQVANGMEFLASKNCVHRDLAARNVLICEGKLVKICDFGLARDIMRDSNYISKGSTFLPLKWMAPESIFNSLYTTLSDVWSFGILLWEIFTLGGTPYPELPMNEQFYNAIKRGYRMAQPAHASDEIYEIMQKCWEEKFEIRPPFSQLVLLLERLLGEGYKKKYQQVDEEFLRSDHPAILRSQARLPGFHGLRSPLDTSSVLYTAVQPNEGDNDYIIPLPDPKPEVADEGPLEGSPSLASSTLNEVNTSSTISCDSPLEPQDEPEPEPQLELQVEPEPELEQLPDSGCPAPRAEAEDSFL
Excerpt: as §1

[4] = molecular target: T4, panel of 442 kinases (Homo sapiens, UniProt P35968); settings: kinase VEGFR2; compound concentration 10 µM
T4 construct: purchased KINOMEscan
T4 sequence (P35968 20-1356): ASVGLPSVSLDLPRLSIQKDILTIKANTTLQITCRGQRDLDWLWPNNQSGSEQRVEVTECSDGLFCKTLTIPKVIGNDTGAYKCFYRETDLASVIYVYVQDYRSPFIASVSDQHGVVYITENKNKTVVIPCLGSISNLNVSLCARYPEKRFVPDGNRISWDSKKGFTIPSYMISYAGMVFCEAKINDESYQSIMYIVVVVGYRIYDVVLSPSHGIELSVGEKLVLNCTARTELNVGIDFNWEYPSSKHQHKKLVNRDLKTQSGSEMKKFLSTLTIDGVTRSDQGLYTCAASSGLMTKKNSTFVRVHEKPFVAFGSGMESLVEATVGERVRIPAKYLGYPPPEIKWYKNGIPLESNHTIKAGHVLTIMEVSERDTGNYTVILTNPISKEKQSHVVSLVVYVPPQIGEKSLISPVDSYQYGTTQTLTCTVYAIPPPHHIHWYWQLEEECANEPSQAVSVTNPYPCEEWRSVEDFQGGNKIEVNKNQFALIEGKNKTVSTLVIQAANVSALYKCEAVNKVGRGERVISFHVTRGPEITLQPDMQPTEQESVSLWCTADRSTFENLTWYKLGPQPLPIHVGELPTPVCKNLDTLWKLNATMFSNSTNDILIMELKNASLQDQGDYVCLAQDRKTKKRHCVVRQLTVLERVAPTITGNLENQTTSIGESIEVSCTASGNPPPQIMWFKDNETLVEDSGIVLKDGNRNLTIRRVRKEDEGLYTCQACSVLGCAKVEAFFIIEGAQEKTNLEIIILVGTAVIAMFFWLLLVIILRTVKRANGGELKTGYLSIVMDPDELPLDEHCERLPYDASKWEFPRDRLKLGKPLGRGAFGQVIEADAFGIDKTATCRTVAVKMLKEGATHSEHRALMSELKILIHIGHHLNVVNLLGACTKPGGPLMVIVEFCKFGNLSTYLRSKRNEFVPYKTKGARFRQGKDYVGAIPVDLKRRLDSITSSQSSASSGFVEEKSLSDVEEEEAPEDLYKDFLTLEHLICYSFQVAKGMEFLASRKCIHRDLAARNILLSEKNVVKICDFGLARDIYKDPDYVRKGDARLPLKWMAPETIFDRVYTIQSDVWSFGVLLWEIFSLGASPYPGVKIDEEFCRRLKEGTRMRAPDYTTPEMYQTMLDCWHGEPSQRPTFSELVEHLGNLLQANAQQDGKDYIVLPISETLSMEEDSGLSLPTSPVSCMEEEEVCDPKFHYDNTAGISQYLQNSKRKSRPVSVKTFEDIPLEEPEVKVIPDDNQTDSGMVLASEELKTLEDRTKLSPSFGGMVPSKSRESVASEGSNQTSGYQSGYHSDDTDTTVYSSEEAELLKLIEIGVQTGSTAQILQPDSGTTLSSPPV
Excerpt: as §1

T1 sequence (P42685 whole entry): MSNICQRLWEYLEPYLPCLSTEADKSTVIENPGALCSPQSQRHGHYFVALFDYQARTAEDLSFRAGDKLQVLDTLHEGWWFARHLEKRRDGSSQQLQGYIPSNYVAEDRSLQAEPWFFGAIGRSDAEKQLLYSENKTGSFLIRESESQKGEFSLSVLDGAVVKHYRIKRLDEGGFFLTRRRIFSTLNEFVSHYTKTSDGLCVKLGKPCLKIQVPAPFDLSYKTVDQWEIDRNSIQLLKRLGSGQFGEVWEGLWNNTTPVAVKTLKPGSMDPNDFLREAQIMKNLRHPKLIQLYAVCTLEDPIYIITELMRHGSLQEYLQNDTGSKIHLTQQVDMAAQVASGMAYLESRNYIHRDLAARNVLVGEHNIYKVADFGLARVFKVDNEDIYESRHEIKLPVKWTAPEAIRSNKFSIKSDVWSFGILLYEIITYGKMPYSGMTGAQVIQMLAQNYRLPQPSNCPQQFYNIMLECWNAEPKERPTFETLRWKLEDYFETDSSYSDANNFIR

Row | SMILES | KINOMEscan: FRK [1] | KINOMEscan: EPHA7 [2] | KINOMEscan: PDGFRB [3] | % Ctrl, VEGFR2 [4]
1 | COc1cc(C(=O)N2CCC(N3CCN(C)CC3)CC2)ccc1Nc1ncc2c(n1)N(C)c1ccccc1C(=O)N2C [15 (LRRK2-IN-1)] | 34 | 97 | 100 | 84 % Ctrl
2 | COc1cc(C(=O)N2CCC(N3CCN(C)CC3)CC2)ccc1Nc1ncc2c(n1)N1CCc3cccc(c31)C(=O)N2C [Compound 24] | 56 |  | 67 | 100 % Ctrl
3 | COc1cc(C(=O)N2CCC(N3CCN(C)CC3)CC2)ccc1Nc1ncc2c(n1)N(C1CCCC1)c1ccccc1C(=O)N2C [Compound 25, 11-cyclopentyl-2-((2-methoxy-4-(4-(4-methylpiperazin-1-yl)piperidine-1-carbonyl)phenyl)amino)-5-methyl-5H-benzo[e]pyrimido[5,4-b][1,4]diazepin-6(11H)-one] | 24 | 99 | 83 | 100 % Ctrl
4 | CCOc1cc(C(=O)N2CCC(N3CCN(C)CC3)CC2)ccc1Nc1ncc2c(n1)N(C1CCCC1)c1ccccc1C(=O)N2C [Compound 26] | 87 | 100 | 100 | 100 % Ctrl
